Source: article PMC5469273, “Discovery of Novel Small-Molecule Inhibitors of LIM Domain Kinase for Inhibiting HIV-1” (Journal of Virology, 2017)

What was measured:
in vitro = conditions: human
HIV-1(NL4-3) = format: cell-based; conditions: for Infectivity (percentage of GFP+ cells): 100 μM, pretreated 1 h, HIV-1(NL4-3) 3 h, washed, viable cells only, paired DMSO controls 1.76-3.37%; for X4 HIV infection in screening: at nontoxic dosages, Fig. 1C and 2
[1] = oral gavage 20 mg/kg daily, 7 days
LIMK1 = LIMK1 (Homo sapiens, UniProt P53667); assay: LIMK1 biochemical assay, 10-dose IC50; set-up: purified from insect cells; His; purchased Reaction Biology Corporation, Malvern, PA; host or cells: insect cells (coexpressed with ROCK1); conditions: purified LIMK1; 10 μM ATP, 1 μM cofilin; ≥2 in vitro kinase assays; read-out: LIMK1 Biochemical Inhibition IC50
From the text: We selected R10015 from the potential LIMK inhibitors for further detailed mechanistic studies. The synthesis, purification, and biochemical characterization of R10015 are described in Materials and Methods below and shown in Fig. 3. We performed a cell-free assay to measure R10015 inhibition of the LIM domain kinase using purified human LIMK1 and its substrate, cofilin. […] We also performed profiling of R10015 against a panel of 62 kinases (Table 2).
Biochemical LIMK1 assays for all inhibitors were carried out by Reaction Biology Corporation, Malvern, PA, and followed the protocols described on its website. […] Reactions were carried out at 10 μM ATP, 1 μM substrate (cofilin), and 50 nM LIMK1 (final concentrations). […] The reagents were as follows: base reaction buffer, 20 mM HEPES (pH 7.5), 10 mM MgCl2, 1 mM EGTA, 0.02% Brij 35, 0.02 mg/ml bovine serum albumin (BSA), 0.1 mM Na3VO4, 2 mM dithiothreitol (DTT), 1% DMSO. No additional cofactors were added to the reaction mixture. The reaction procedures were as follows. (i) The indicated substrate was prepared in freshly made base reaction buffer. (ii) Any required cofactors were delivered to the substrate solution described above. (iii) The indicated kinase was delivered into the substrate solution and gently mixed. (iv) The compounds in DMSO were delivered into the kinase reaction mixture. (v) [^33P]ATP (final specific activity, 0.01 μCi/μl) was delivered into the reaction mixture to initiate the reaction. […] (viii) The filters were washed extensively in 0.1% phosphoric acid.

Chain of LIMK1 (P53667 285-638): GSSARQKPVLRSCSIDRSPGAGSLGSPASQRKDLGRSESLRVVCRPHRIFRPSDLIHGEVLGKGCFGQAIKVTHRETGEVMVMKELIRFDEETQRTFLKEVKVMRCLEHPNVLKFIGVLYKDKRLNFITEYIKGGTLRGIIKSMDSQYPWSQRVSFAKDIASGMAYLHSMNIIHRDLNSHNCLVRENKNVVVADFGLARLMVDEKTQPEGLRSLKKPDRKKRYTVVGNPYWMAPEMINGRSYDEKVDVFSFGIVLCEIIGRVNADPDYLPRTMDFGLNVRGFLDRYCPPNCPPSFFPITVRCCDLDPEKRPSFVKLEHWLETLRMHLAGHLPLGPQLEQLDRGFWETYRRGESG

## Cc1c[nH]c2ncnc(-c3ccc(NC(=O)N(CCO)c4ccccc4)cc3)c12 [Compound R7826]
In vitro
  viability at 100 µM: 96.2%
HIV-1(NL4-3); 48 h
  Infectivity (percentage of GFP+ cells): 1.02%
HIV-1(NL4-3)
  X4 HIV infection in screening: blocked
[1]
  body weight over a week compared to PBS control: gained weight

## Cc1c[nH]c2ncnc(N3CCC(c4nc5cc(C#N)ccc5[nH]4)CC3)c12 [Compound R8212]
In vitro
  viability at 100 µM: 93.3%
HIV-1(NL4-3); 48 h
  Infectivity (percentage of GFP+ cells): 2.22%
HIV-1(NL4-3)
  X4 HIV infection in screening: blocked
LIMK1
  IC50: 44 ± 6 nM

## CC1(c2nc3ccc(C(=O)NC4CCC4)cc3[nH]2)CCN(c2ncnc3[nH]ccc23)CC1 [Compound R8482]
In vitro
  viability at 100 µM: 93.4%
HIV-1(NL4-3); 48 h
  Infectivity (percentage of GFP+ cells): 1.10%
HIV-1(NL4-3)
  X4 HIV infection in screening: blocked
LIMK1
  IC50: 41 ± 4 nM

## Cc1c[nH]c2ncnc(-c3ccc(-c4nc5ccc(C(=O)NC6CCCC6)cc5[nH]4)c(F)c3)c12 [Compound R8584]
In vitro
  viability at 100 µM: 93.7%
HIV-1(NL4-3); 48 h
  Infectivity (percentage of GFP+ cells): 0.65%
HIV-1(NL4-3)
  X4 HIV infection in screening: blocked
LIMK1
  IC50: 50 ± 7 nM

## CC(C)NC(=O)c1ccc2[nH]c(N3CCN(c4ncnc5[nH]cc(Cl)c45)C[C@@H]3C)nc2c1 [Compound R10543]
In vitro
  viability at 100 µM: 90.1%
HIV-1(NL4-3); 48 h
  Infectivity (percentage of GFP+ cells): 0.75%
HIV-1(NL4-3)
  X4 HIV infection in screening: blocked
LIMK1
  IC50: 5 ± 2 nM

## CCOC(=O)c1ccc2nc(N3CCN(c4ncnc5[nH]cc(Cl)c45)[C@@H](C)C3)[nH]c2c1 [Compound R10659]
In vitro
  viability at 100 µM: 89.8%
HIV-1(NL4-3); 48 h
  Infectivity (percentage of GFP+ cells): 1.30%
HIV-1(NL4-3)
  X4 HIV infection in screening: blocked

## Cc1cc(C#N)cc(C)c1Oc1nc(Nc2ccc(C#N)cc2)nc(N)c1Br [Etravirine, etravirine, reference compound]
HIV-1(NL4-3); etravirine 100 nM, HIV(NL4-3), 48 h, Fig. 1B
  HIV-dependent GFP expression (GFP+ cells): 0.01%
